The results in this text go back to US6759420B1, “Arylalkanoyl derivatives, processes for their preparation, their use and pharmaceutical compositions containing them” (Aventis Pharma Deutschland GmbH, priority 1999, dated 2004).

Where a name gives a salt, the structure may show the parent alone.

Sequence of factor Xa (P00742 235-488 limits assumed): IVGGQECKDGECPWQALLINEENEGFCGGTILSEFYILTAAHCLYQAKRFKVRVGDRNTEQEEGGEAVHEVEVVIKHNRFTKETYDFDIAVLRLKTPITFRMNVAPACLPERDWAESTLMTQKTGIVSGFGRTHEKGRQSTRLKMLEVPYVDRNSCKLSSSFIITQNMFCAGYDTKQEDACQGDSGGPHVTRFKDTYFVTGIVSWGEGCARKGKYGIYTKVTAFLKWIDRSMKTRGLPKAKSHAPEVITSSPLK
Sequence of factor Xa (P00742 41-179 limits assumed): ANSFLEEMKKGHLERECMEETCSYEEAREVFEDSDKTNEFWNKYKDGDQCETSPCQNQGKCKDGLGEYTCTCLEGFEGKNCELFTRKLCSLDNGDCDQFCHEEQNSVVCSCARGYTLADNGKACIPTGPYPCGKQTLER

In the assay the target is factor Xa (Homo sapiens, UniProt P00742). In words: Factor Xa assay (Test 1a), chromogenic. Type of assay: biochemical. Set-up: purchased Enzyme Research Laboratories, Inc; South Bend, Ind. The settings on record: in vitro factor Xa assay Test 1a; human factor Xa 0.5 nM, substrate S-2765 140 μM, 25° C.; Ki from IC50 corrected for substrate competition. The source says: The ability of a compound of formula (I) to inhibit factor Xa, thrombin, plasmin, elastase, and trypsin may be assessed by determining the concentration of compound of formula (I) that inhibits enzyme activity by 50% (IC50). Purified enzymes are used in chromogenic assays. To determine the inhibition constant, the IC50 value is corrected for competition with substrate using the formula:
Ki=IC50×(1/{1+((substrate concentration)/substrate Km)})
where Km is the Michaelis-Menten constant. Y. -C. Chen and W. H. Prusoff, Biochem. Pharmacol. 22: […] (1973), which is incorporated herein by reference.
TBS-PEG buffer (50 mM Tris-Cl, pH 7.8, 200 mM NaCl, 0.05% (w/v) PEG-8000, 0.02% (w/v) NaN3) is used for this assay. The IC50 is determined by combining in appropriate wells of a Costar half-area microtiter plate 25 μl human factor Xa (Enzyme Research Laboratories, Inc.; South Bend, Ind.) in TBS-PEG; 40 μl 10% (v/v) DMSO in TBS-PEG (uninhibited control) or various concentrations of the compound to be tested diluted in 10% (v/v) DMSO in TBS-PEG; and substrate S-2765 (N-benzyloxycarbonyl-D-Arg-Gly-L-Arg-p-nitroanilide; Kabi Pharmacia, Inc.; Franklin Ohio) in TBS-PEG.
The assays are performed by pre-incubating the compound of formula (I) plus enzyme for 10 min, then the assay is initiated by adding substrate to obtain a final volume of 100 μl. The initial velocity of chromogenic substrate hydrolysis is measured by the change in absorbance at 405 nm using a Bio-tek Instruments kinetic plate reader (Ceres UV900HDi) at 25° C. during the linear portion of the time course (usually 1.5 min after addition of substrate). The concentration of inhibitor that causes a 50% decrease in the rate of substrate hydrolysis is predicted by linear regression after plotting the relative rates of hydrolysis (compared to the uninhibited control) versus the log of the compound of formula (I) concentration. The enzyme concentration is 0.5 nM and substrate concentration is 140 μM.
As to `CCOC(=O)[C@H](CCCNC(=N)N)NC(=O)[C@@H](NC(=O)C(Cc1ccc(C(=N)N)cc1)c1cccc(F)c1)C1CCCCC1` (mixture of isomers) [Example 126, 2-(S)-{2-(S)-[3-(4-Carbamimidoyl-phenyl)-2-(R,S)-(3-fluoro-phenyl)-propionylamino]-2-cyclohexyl-acetylamino}-5-guanidino-pentanoic acid ethyl ester hydrochloric acid salt], the Ki worked out at 11 nM. Turning to `N=C(N)NCCC[C@H](NC(=O)[C@@H](NC(=O)C(Cc1ccc(C(=N)N)cc1)c1ccccc1)C1CCCCC1)C(N)=O` (mixture of isomers) [Example 135, 2-(S)-{2-(S)-[3-(4-Carbamimidoyl-phenyl)-2-(R,S)-phenyl-propionylamino]-2-cyclohexyl-acetylamino}-5-guanidino-pentanoic acid amide hydrochloric acid salt], the inhibition constant Ki was 13 nM.

Take `N=C(N)c1ccc(CNC(=O)[C@@H](NC(=O)C(Cc2ccc(CN)cc2)C2CCCCC2)C2CCCCC2)cc1` (mixture of isomers) [Example 138, 3-(4-Aminomethyl-phenyl)-N-[(S)-(4-carbamimidoyl-benzyl-carbamoyl)-cyclohexyl-methyl]-2-(R,S)-cyclohexyl-propionamide acetic acid salt]: the Ki was determined as 55 nM. The compound `Cc1ccccc1C(Cc1ccc(C(=N)N)cc1)C(=O)N[C@H](C(=O)N[C@@H](CCCNC(=N)N)C(N)=O)C1CCCCC1` (mixture of isomers) [Example 140, 2-(S)-{2-(S)-[3-(4-Carbamimidoyl-phenyl)-2-(R,S)-o-tolyl-propionylamino]-2-cyclohexyl-acetylamino}-5-guanidino-pentanoic acid amide hydrochloric acid salt] yielded a Ki of 3 nM. Compound `Cc1ccc(C(Cc2ccc(C(=N)N)cc2)C(=O)N[C@H](C(=O)N[C@@H](CCCNC(=N)N)C(N)=O)C2CCCCC2)cc1` (mixture of isomers) [Example 141, 2-(S)-{2-(S)-[3-(4-Carbamimidoyl-phenyl)-2-(R,S)-p-tolyl-propionylamino]-2-cyclohexyl-acetylamino}-5-guanidino-pentanoic acid amide hydrochloric acid salt] had a Ki of 100 nM.

Turning to `N=C(N)c1ccc(CNC(=O)[C@@H](NC(=O)C(Cc2ccc(C(=N)N)cc2)c2cccc(Cl)c2)C2CCCCC2)cc1` (mixture of isomers) [Example 157, N-[(S)-(4-Carbamimidoyl-benzylcarbamoyl)-cyclohexyl-methyl]-3-(4-carbamimidoyl-phenyl)-2-(R,S)-(3-chloro-phenyl)-propionamide hydrochloric acid salt], the affinity, expressed as Ki, was 19 nM.

As to `CC(C)OC(=O)[C@H](CCCNC(=N)N)NC(=O)[C@@H](NC(=O)C(Cc1ccc(C(=N)N)cc1)C1CCCCC1)C1CCCCC1` (mixture of isomers) [Example 181, 2-(S)-{2-[3-(4-Carbamimidoyl-phenyl)-2-(R,S)-cyclohexyl-propionylamino]-2-(S)-cyclohexyl-acetylamino}-5-guanidino-pentanoic acid isopropyl ester hydrochloric acid salt], the inhibition constant Ki was determined as 13 nM. Compound `N=C(N)NCCC[C@H](NC(=O)[C@@H](NC(=O)C(Cc1ccc(C(=N)N)cc1)C1CCCCC1)C1CCCCC1)C(=O)NCCc1ccccc1` (mixture of isomers) [Example 184, 2-(S)-{2-(R,S)-[3-(4-Carbamimidoyl-phenyl)-2-cyclohexyl-propionylamino]-2-(S)-cyclohexyl-acetylamino}-5-guanidino-pentanoic acid phenethyl-amide trifluoroacetic acid salt] yielded an inhibitory constant (Ki) of 19 nM. The value for `N=C(N)c1ccc(CNC(=O)[C@@H](NC(=O)C(Cc2ccc(C(=N)N)cc2)c2ccc3ccccc3c2)C2CCCCC2)cc1` (mixture of isomers) [Example 228, N-[(S)-(4-Carbamimidoyl-benzylcarbamoyl)-cyclohexyl-methyl]-3-(4-carbamimidoyl-phenyl)-2-(R,S)-naphthalen-2-yl-propionamide hydrochloric acid salt] was 3 nM; that for `N=C(N)NCCCC(NC(=O)C(NC(=O)C(Cc1ccc(C(=N)N)cc1)C1CCCCC1)C1CCCCC1)C(N)=O` (single isomer, unassigned) [Example 110] was 2 nM. The value for `N=C(N)NCCCC(NC(=O)C(NC(=O)C(Cc1ccc(C(=N)N)cc1)C1CCCCC1)C1CCCCC1)C(N)=O` (single isomer, unassigned; less polar) [Example 4] was 2 nM; that for `CCOC(=O)C(CCCNC(=N)N)NC(=O)C(NC(=O)C(Cc1ccc(C(=N)N)cc1)C1CCCCC1)C1CCCCC1` (single isomer, unassigned; less polar) [Example 5] was 5 nM.

For `N=C(N)NCCCC(NC(=O)C(NC(=O)C(Cc1ccc(C(=N)N)cc1)C1CCCCC1)C1CCCCC1)C(=O)O` (single isomer, unassigned; less polar) [Example 6], affinity was put at a Ki of 5 nM. As for `N=C(N)c1ccc(CC(C(=O)NC(C(=O)NCCN2C(=O)CNC2=O)C2CCCCC2)C2CCCCC2)cc1` (single isomer, unassigned; less polar) [Example 7], the affinity corresponds to a Ki of 7650 nM.

On to `C[n+]1ccc(CNC(=O)[C@@H](NC(=O)C(Cc2ccc(C(=N)N)cc2)c2ccccc2)C2CCCCC2)cc1` (single isomer, unassigned; less polar) [Example 86], for which the affinity, expressed as Ki, was 600 nM.

Consider `N=C(N)c1ccc(CNC(=O)C(NC(=O)C(Cc2ccc(C(=N)N)cc2)C2CCCCC2)C2CCCCC2)cc1` (single isomer, unassigned; less polar) [Example 111], for which the Ki stood at 59 nM.

`N=C(N)c1ccc(CC(C(=O)NC(C(=O)NCC2CCN(C(=N)N)CC2)C2CCCCC2)C2CCCCC2)cc1` (single isomer, unassigned; less polar) [Example 113] returned an inhibition constant (Ki) of 6 nM. The value for `N=C(N)NCCCC(NC(=O)C(NC(=O)C(Cc1ccc(C(=N)N)cc1)c1ccc(Br)cc1)C1CCCCC1)C(N)=O` (single isomer, unassigned; less polar) [Example 119] was 11 nM. With `N=C(N)NCCCC(NC(=O)C(NC(=O)C(Cc1ccc(C(=N)N)cc1)c1cccc(Cl)c1)C1CCCCC1)C(N)=O` (single isomer, unassigned; less polar) [Example 124], the affinity corresponds to a Ki of 1 nM. For the compound `N=C(N)NCCCC(NC(=O)C(NC(=O)C(Cc1ccc(C(=N)N)cc1)c1cccc(F)c1)C1CCCCC1)C(N)=O` (single isomer, unassigned; less polar) [Example 131], the inhibition constant (Ki) worked out at 5 nM.

`N=C(N)NCCCC(NC(=O)C(NC(=O)C(Cc1ccc(C(=N)N)cc1)c1cccc(Br)c1)C1CCCCC1)C(N)=O` (single isomer, unassigned; less polar) [Example 133]: the affinity, expressed as Ki, was 1 nM.

For the compound `CC(=N)N1CCC(CNC(=O)C(NC(=O)C(Cc2ccc(C(=N)N)cc2)C2CCCCC2)C2CCCCC2)CC1` (single isomer, unassigned; less polar) [Example 137], the inhibitory constant (Ki) was 4 nM.

`N=C(N)c1ccc(CNC(=O)C(NC(=O)C(Cc2ccc(C(=N)N)cc2)c2cccc(F)c2)C2CCCCC2)cc1` (single isomer, unassigned; less polar) [Example 149] returned a Ki of 23 nM. For the compound `N=C(N)c1ccc(CNC(=O)C(NC(=O)C(Cc2ccc(C(=N)N)cc2)c2cccc(Br)c2)C2CCCCC2)cc1` (single isomer, unassigned; less polar) [Example 151], the affinity, expressed as Ki, was 4 nM.

`Cc1ccc(C(Cc2ccc(C(=N)N)cc2)C(=O)NC(C(=O)NCc2ccc(C(=N)N)cc2)C2CCCCC2)cc1` (single isomer, unassigned; less polar) [Example 154] showed an inhibition constant Ki of 310 nM. For `Cc1cccc(C(Cc2ccc(C(=N)N)cc2)C(=O)NC(C(=O)NCC2CCN(C(=N)N)CC2)C2CCCCC2)c1` (single isomer, unassigned; less polar) [Example 159], affinity was put at a Ki of 11 nM.

`N=C(N)c1ccc(CC(C(=O)NC(C(=O)NCC2CCN(C(=N)N)CC2)C2CCCCC2)c2cccc(F)c2)cc1` (single isomer, unassigned; less polar) [Example 161] returned an inhibition constant (Ki) of 8 nM. With `Cc1ccccc1C(Cc1ccc(C(=N)N)cc1)C(=O)NC(C(=O)NCC1CCN(C(=N)N)CC1)C1CCCCC1` (single isomer, unassigned; less polar) [Example 163] the figure was 1 nM; with `N=C(N)c1ccc(CC(C(=O)NC(C(=O)NCC2CCN(C(=N)N)CC2)C2CCCCC2)c2cccc(Br)c2)cc1` (single isomer, unassigned; less polar) [Example 165], 2 nM; with `Cc1cccc(C(Cc2ccc(N)cc2)C(=O)NC(C(=O)NCC2CCN(C(=N)N)CC2)C2CCCCC2)c1` (single isomer, unassigned; less polar) [Example 167], 74 nM.
